Experimental data published in patent publication US20240307383A1 (AstraZeneca AB, priority 2023, published 2024).
Read-outs that look alike come from different tables or passages of the source.

What was measured:
[1] = test system: patients with type 2 diabetes and CKD; settings: post hoc analysis of the CREDENCE trial; cited from earlier work
[2] = test system: pregnant rabbits; settings: period of major embryonic organogenesis; cited from earlier work
[3] = observations so far; cited from earlier work
[4] = test system: patients having chronic kidney disease; assay: UACR change from baseline over 12 weeks (Example 3, FIG. 5); type: in vivo, human; settings: dapagliflozin 10 mg alone; plateau over 12-week period; UACR>700 mg/g
[5] = test system: patients having chronic kidney disease; assay: Systolic blood pressure change from baseline, all participants (Example 3, FIG. 6, Table 10B); type: in vivo, human
[6] = test system: patients having chronic kidney disease; assay: Systolic blood pressure change from baseline, participants having UACR >700 mg/g (FIG. 7A, Table 11A); type: in vivo, human; settings: for Systolic blood pressure, mean change from baseline: Dapa 10 mg + placebo, UACR >700 mg/g
[7] = test system: patients having chronic kidney disease; assay: Diastolic blood pressure change from baseline, participants having UACR >700 mg/g (FIG. 7B, Table 11B); type: in vivo, human; settings: for Diastolic blood pressure, mean change from baseline: Dapa 10 mg + placebo, UACR >700 mg/g
[8] = test system: healthy volunteers and patients with type 2 diabetes; settings: cited from earlier work
[9] = dapagliflozin 10 mg + placebo, end of 12-week period, UACR>700 mg/g

Cc1ccc([C@@H]2O[C@H](CO)[C@@H](O)[C@H](O)[C@H]2O)cc1Cc1ccc(-c2ccc(F)cc2)s1 [canagliflozin]
Effect on UACR levels [1]: failed to reduce UACR levels below 300 mg/g in a substantial number of patients

COc1nc(C)cnc1NS(=O)(=O)c1cccnc1-c1ccc(-c2nnco2)cc1 [zibotentan, N-(3-methoxy-5-methylpyrazin-2-yl)-2-[4-(1,3,4-oxadiazol-2-yl)phenyl]pyridine-3-sulfonamide]
Dose levels causing teratogenic effects [2]: ≥ 1 mg/kg/day
Hepatotoxicity [3]: has not been observed

CCOc1ccc(Cc2cc([C@@H]3O[C@H](CO)[C@@H](O)[C@H](O)[C@H]3O)ccc2Cl)cc1 [dapagliflozin, (1S)-1,5-anhydro-1-{4-chloro-3-[(4-ethoxyphenyl)methyl]phenyl}-D-glucitol]
Mean percent decrease of UACR from baseline [4]: approximately 20%
Systolic blood pressure, mean change ([5]; Dapa 10 mg + placebo, all participants): −3.4
Decrease in systolic blood pressure from baseline ([5]; dapagliflozin 10 mg + placebo, 12-week period, all participants): 3.4%
Systolic blood pressure after final planned dose ([5]; dapagliflozin 10 mg + placebo, week 14): returned to baseline levels
Systolic blood pressure, mean change from baseline ([6]; Week 1): −5.7
Systolic blood pressure, mean change from baseline ([6]; Week 3): −6.1
Systolic blood pressure, mean change from baseline ([6]; Week 6): −6.5
Systolic blood pressure, mean change from baseline ([6]; Week 9): −2.9
Systolic blood pressure, mean change from baseline ([6]; Week 12): −4.6
Mean reduction in systolic blood pressure from baseline [6, 9]: over 4%
Diastolic blood pressure, mean change from baseline ([7]; Week 1): −2.9
Diastolic blood pressure, mean change from baseline ([7]; Week 3): −2.4
Diastolic blood pressure, mean change from baseline ([7]; Week 6): −2.7
Diastolic blood pressure, mean change from baseline ([7]; Week 9): −2.0
Diastolic blood pressure, mean change from baseline ([7]; Week 12): −2.2
Mean reduction in diastolic blood pressure relative to baseline [7, 9]: approximately 2%
Well tolerated dose ([8]; repeat dose testing for 14 days in healthy volunteers and patients with type 2 diabetes): up to 100 mg/day
Well tolerated dose ([8]; single dose testing in healthy volunteers): up to 500 mg/day
